Here are results for four compounds from patent US11912667B2, “Morphic forms of hexadecyloxypropyl-phosphonate esters and methods of synthesis thereof” (EMERGENT BIODEFENSE OPERATIONS LANSING LLC, priority 2013, dated 2024).

Each structure is given as a SMILES string. “And” between values parts separate entries of the source, which are not always exact repeats. Identical values can stand only once.

Common to all, as to assay type: physicochemical
A short description of series [1]: Estimated solubility by aliquot addition of solvent, visual inspection. The note with it: for solubility: thermodynamic from solid. How it is done: The present disclosure provides morphic Form II with low solubility in methanol. The solubility may be estimated based on the total volume of solvent needed to provide complete dissolution. The actual solubility may be greater than the value calculated due to the incremental addition of solvent and kinetics of dissolution of the material. […] Solubility Determination: Aliquots of test solvents or solvent mixtures were added to weighed samples of Compound 1. Samples were sonicated as needed between additions to facilitate dissolution. Complete dissolution of the test material in each solvent was determined by visual inspection. The solubility was estimated based on the total volume of solvent needed to provide complete dissolution. The actual solubility may be greater than the value calculated due to the incremental addition of solvent and kinetics of dissolution of the material. […] See Table 2 and discussion under “Solubility” section in the “Detailed Description” of the present disclosure.

The nature of series [2]: Methanol solubility and metastable zone (MSZ), Crystal16. Conditions: for Cloud Point 2: 0.03 C./min cooling rate; for Cloud Point 1: 0.5° C./min cooling rate. How it is done: MSZW is a nucleation kinetic-limited parameter that is highly dependent on process condition. Many factors may influence the value of MSZW, e.g., rate of cooling, agitation, the presence of foreign particles and impurities. MSZW decreases as stirrer speed increases; MSZW widens at N>400 rpm; and MSZW widens as cooling rate rises. In one embodiment, large differences in the metastable zone are observed for both Form II and Form I between the rapid cooling rate of about 0.5° C./min and a very slow cooling rate of about 0.03° C./min. In another embodiment, narrow metastable cooling rates are observed at higher concentrations (e.g., about 100 mg/mL).

Series [3] in a line: Slurry conversion of Form II to Form H in methanol:water, seeded with Form H. Conditions: for Results (form recovered from slurry): stirred 7-9 days. The method, then: The present disclosure provides that an anhydrous form (e.g. Form II) is produced without forming a hydrate form (e.g., Form H) during the crystallization process, by determining the critical water concentration below which the anhydrous form is the stable form. The critical water concentration is determined by varying the methanol-water concentrations in the slurries.
In another embodiment, at concentrations of 97:3 methanol:water and greater, Form H was recovered from the slurries. These embodiments provide that the critical water concentration for forming Form II is between 1 and 3% water. In some embodiments, water in the initial methanol solvent is not accounted for, which results in slightly higher final water concentration than 1 and 3%. In additional embodiments, experiments, by varying the methanol-water concentrations in the slurries, is carried out at room temperature or at about 45° C. In one embodiment, the critical water concentration is less than 5% at room temperature and less than 10% at about 45° C. Mixtures of Form II and Form H are observed to convert to either Form II or Form H in methanol depending on the exact water content. The present disclosure provides that during crystallization of Form II, critical water activity remains very low up to about 45° C. and that water content in the final methanol recrystallization is a critical process parameter to control to avoid operating in conditions which favors formation of Form H.

The nature of series [4]: Relative humidity (RH) stressing of Form II. The source says: In some embodiments, a composition comprising morphic Form II of the present disclosure converts to a hydrate Form (e.g., Form H) if stored under relative humidity (RH) of 40% or more. In some embodiments, a composition comprising morphic Form II of the present disclosure partially converts to morphic Form H if stored under relative humidity of equal to or more than 40% for several days. […] A complete conversion of a composition comprising the morphic Form II of the present disclosure occurs at about equal to or more than 80% RH, about equal to or more than 81% RH, about equal to or more than 82% RH, about equal to or more than 83% RH, about equal to or more than 84% RH, about equal to or more than 85% RH, about equal to or more than 86% RH, about equal to or more than 87% RH, about equal to or more than 88% RH, about equal to or more than 89% RH over between 5-20 days (e.g., 5 days, 6 days, 7 days, 8 days, 9 days, 10 days, 11 days, 12 days, 13 days, 14 days, 15 days, 16 days, 17 days, 18 days, 19 days, 20 days).
The present disclosure provides that exposure of Form II to higher humidity is sufficient for conversion to the hydrate form.

Series [5] in a line: Stable form screening slurries and interconversion studies. Conditions: for Form recovered from slurries: seeded with Form I, about two weeks. The method, then:
In order to aid in the design of solid form screening experiments, solubility estimates were completed in various solvent systems using Form II at ambient and elevated temperature. […] Slurries were set up in a variety of solvent systems to determine the stable form and the potential of Compound 1 to form stable solvates. The slurries were prepared using Form II and each was seeded with Form I. Each of the slurries was stirred for about two weeks and most of the slurries were run at room temperature although a few were run at sub-ambient and elevated temperatures (˜45° C.). […] A few samples did show a minor amount of Form I in Form II likely due to poor conversion kinetics due to limited solubility. […] Interconversion studies starting with a mixture of Form I and Form II were also run in methanol at room temperature and ˜45° C.

The nature of series [6]: Particle size analysis (PSA), Malvern Mastersizer 2000. The source says: Particle size data was acquired using a Malvern Instruments Mastersizer 2000 equipped with a Hydro2000 μP dispersion unit. Data was collected and analyzed using Mastersizer 2000 software (v. 5.60) using volume based measurements. NIST-traceable glass beads were used to qualify the instrument.
Series [7] can be described thus: Weight increase upon increasing relative humidity. The note with it: upon increasing relative humidity from 5.0% to 95.0%. The source says:
In another embodiment of the invention, provided herein is Form II characterized as a solid form of Compound 1, such that the solid form undergoes a weight increase of less than 1.5% upon increasing relative humidity from 5.0% to 95.0%.

[8] abbreviates: crystallized from methanol ~10 vols, seed ~0.5% Form II at ~58° C.
[9] abbreviates: crystallized from methanol ~10 vols, seed ~3% Form II.
Where [10] appears, read: 10% of total volume of particles no larger than the indicated size.
Setting [11] is: 50% of total volume of particles no larger than the indicated size.
Setting [12] is: 90% of total volume of particles no larger than the indicated size.

As to `CCCCCCCCCCCCCCCCOCCCOP(=O)(O)CO[C@H](CO)Cn1ccc(N)nc1=O` [Form II, phosphonic acid, [[(S)-2-(4-amino-2-oxo-1(2H)-pyrimidinyl)-1-(hydroxymethyl)ethoxy]methyl]mono[3-(hexadecyloxy)propyl] ester], the “Solubility in various solvent systems” value in series [1] (ambient and elevated temperature, each of the solvents tested) is given as “poor solubility”. Moreover, the solubility (in general, how much of the substance goes into solution per volume) was less than 3000 µg/mL in series [1] (aqueous with cosolvent or surfactant or cyclodextrin, Methanol:Water 1:1, RT, estimated); less than 14000 µg/mL in series [1] (aqueous with cosolvent or surfactant or cyclodextrin, Methanol:Water 1:1, ~63 °C, estimated); greater than 5000 µg/mL in series [1] (organic solvent or mixture, Trifluoroethanol, estimate). In addition, the “Solubility in methanol compared to Form I” value in series [2] was “Lower solubility”. Moreover, the “Clear Point” value in series [2] (20.3 mg/mL) stood at 53.6 °C; in series [2] (29.4 mg/mL), 56.2 °C; in series [2] (38.9 mg/mL), 58.1 °C; in series [2] (50.5 mg/mL), 60.2 °C; in series [2] (64.3 mg/mL), 60.5 °C; in series [2] (80.4 mg/mL), 61.2 °C. Further, the “Clear Point” value came to 61.9 °C in series [2] (95.6 mg/mL) and 63.1 °C in series [2] (166.6 mg/mL). Also, the “Cloud Point 2” value in series [2] (20.3 mg/mL) came to 38.2 °C; in series [2] (29.4 mg/mL), 44.6 °C; in series [2] (38.9 mg/mL), 51.1 °C; in series [2] (50.5 mg/mL) it was 56.6 °C; in series [2] (64.3 mg/mL), 58.8 °C; in series [2] (80.4 mg/mL), 57.9 °C. The “Cloud Point 2” value in series [2] (95.6 mg/mL) turned out to be 59.9 °C; in series [2] (166.6 mg/mL), 61.1 °C. The “Cloud Point 1” value in series [2] (20.3 mg/mL) came to 37.6 °C; in series [2] (29.4 mg/mL), 45.1 °C; in series [2] (38.9 mg/mL), 45.1 °C; in series [2] (50.5 mg/mL) it was 51.0 °C; in series [2] (64.3 mg/mL), 48.5 °C; in series [2] (80.4 mg/mL), 49.7 °C. For the same compound, the “Cloud Point 1” value in series [2] (95.6 mg/mL) and in series [2] (166.6 mg/mL) was 58.1 °C in each case. Also, the “Results (form recovered from slurry)” value is recorded as “Form H” in series [3] (Methanol:water (80:20), ~44-45 °C); “Form H” in series [3] (Methanol:water (85:15), ~44-45 °C); “Form H” in series [3] (Methanol:water (90:10), RT); “Form H” in series [3] (Methanol:water (90:10), ~44-45 °C); “Form H” in series [3] (Methanol:water (93:7), RT); “Form H” in series [3] (Methanol:water (93:7), ~2-8 °C). Besides, the “Results (form recovered from slurry)” value in series [3] (Methanol:water (95:5), RT) was “Form H”; in series [3] (Methanol:water (95:5), ~2-8 °C), “Form H”; in series [3] (Methanol:water (95:5), ~44-45 °C), “Form II +”; in series [3] (Methanol:water (97:3), RT), “Form II +”; in series [3] (Methanol:water (97:3), ~2-8 °C), “Form H”; in series [3] (Methanol:water (99:1), ~2-8 °C), “Form II”. Besides, the critical water concentration entry in series [3] (about 45° C. slurries in methanol:water) was “less than 10%”; in series [3] (room temperature slurries in methanol:water) it was “less than 5%”. Moreover, in series [4] (about 43% RH for about 12 days), the “Conversion to hydrate form on RH exposure” value is “partially converts to a hydrate form”. Further, the “Conversion from Form II to Form H on RH exposure” value in series [4] (about 43 to about 85% RH for about 12 days) is “minor conversion from Form II to Form H”; in series [4] (about 85% RH), “complete conversion of Form II to Form H”. Moreover, the “Form recovered from slurries” value in series [5] (anhydrous solvent systems, mostly room temperature) is listed as “Form II was recovered”; in series [5] (aqueous solvent systems), “converted to the hydrated form, Form H”. For the same compound, in series [5] (starting with a mixture of Form I and Form II, methanol, room temperature and ~45° C.), the “Solids recovered from interconversion studies” value is on record as “consistent with Form II”. Besides, in series [6] (FIG. 5), the “particle size distribution, volume weighted mean” value is on record as 25.663. Also, the figures for the d10 result in series [6] (setting [8]) and in series [6] (setting [9]) were “d10 = 17.8 μm” and “d10 = 9.8 μm”, respectively. Moreover, the d50 in series [6] (setting [8]) is on record as 69.6 μm;; in series [6] (setting [9]) it was 34.4 μm;. Also, the values for the d90 entry in series [6] (setting [8]) and in series [6] (setting [9]) were “d90 = 160.9 μm” and “d90 = 101.7 μm”, respectively. In addition, the weight increase result in series [7] is listed as “less than 1.5%”.
`CCCCCCCCCCCCCCCCOCCCOP(=O)(O)CO[C@H](CO)Cn1ccc(N)nc1=O` [Sample 1]: in series [6] (setting [10]), the d10 came out at 19.297 μm. In series [6] (setting [11]), this compound showed a d50 of 81.603 μm. In series [6] (setting [12]), the d90 was determined as 168.698 μm.
In series [6] (setting [10]), `CCCCCCCCCCCCCCCCOCCCOP(=O)(O)CO[C@H](CO)Cn1ccc(N)nc1=O` [Sample 3] displayed a d10 of 19.896 μm. For the same compound, the d50 in series [6] (setting [11]) was 101.748 μm and 101.745 μm.
In turn, `CCCCCCCCCCCCCCCCOCCCOP(=O)(O)CO[C@H](CO)Cn1ccc(N)nc1=O` [Sample 4] returned a d10 in series [6] (setting [10]) of 17.410 μm. Further, the d50 in series [6] (setting [11]) was 85.440 μm. The d90 in series [6] (setting [12]) is recorded as 199.029 μm.
